The record followed here is ChEMBL document CHEMBL1133044, “Nonpeptide GPIIB/IIIA receptor antagonists. Part 21: C-6 flexibility and amide bond orientation are important factors in determining the affinity of compounds for activated or resting platelet receptors” (Bioorg Med Chem Lett, 2000).

Assay [1] concerns the target T1, Integrin alpha-IIb/beta-3 (Homo sapiens, UniProt P05106+P08514). The assay can be described thus: Selectivity as determined by the ratio of KDs, resting receptor over activated receptor. The class given is protein-complex assay.
The target in assay [2] is T1, Integrin alpha-IIb/beta-3. The assay is described as follows: Binding affinity to resting form of alpha IIb/beta3 integrin by flow cytometry using fluorescein ligand L-726,745 displacement from human platelets. In general terms: In flow cytometry, cells or beads pass a laser one at a time.
Target sequence in this assay (P05106 27-788 limits assumed): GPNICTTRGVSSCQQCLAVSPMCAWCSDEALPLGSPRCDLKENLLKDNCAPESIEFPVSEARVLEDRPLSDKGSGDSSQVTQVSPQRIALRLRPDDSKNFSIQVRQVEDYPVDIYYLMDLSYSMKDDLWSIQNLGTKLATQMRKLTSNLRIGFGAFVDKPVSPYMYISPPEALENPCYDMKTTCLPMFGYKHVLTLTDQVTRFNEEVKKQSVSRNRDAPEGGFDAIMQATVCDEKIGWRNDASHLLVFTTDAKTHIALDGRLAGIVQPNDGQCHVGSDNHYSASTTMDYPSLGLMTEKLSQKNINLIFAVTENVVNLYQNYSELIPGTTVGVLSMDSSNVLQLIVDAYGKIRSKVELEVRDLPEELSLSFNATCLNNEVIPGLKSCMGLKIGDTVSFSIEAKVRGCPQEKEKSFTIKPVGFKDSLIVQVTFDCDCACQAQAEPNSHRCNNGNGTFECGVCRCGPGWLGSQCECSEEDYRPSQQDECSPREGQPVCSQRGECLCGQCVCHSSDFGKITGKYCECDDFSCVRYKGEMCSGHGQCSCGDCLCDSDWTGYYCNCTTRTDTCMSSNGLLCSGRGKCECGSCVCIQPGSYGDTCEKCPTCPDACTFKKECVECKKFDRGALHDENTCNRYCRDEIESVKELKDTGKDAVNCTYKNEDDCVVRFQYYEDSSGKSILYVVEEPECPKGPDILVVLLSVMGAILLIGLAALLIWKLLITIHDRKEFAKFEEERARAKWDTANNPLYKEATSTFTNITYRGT
Target sequence in this assay (P08514 32-887 limits assumed): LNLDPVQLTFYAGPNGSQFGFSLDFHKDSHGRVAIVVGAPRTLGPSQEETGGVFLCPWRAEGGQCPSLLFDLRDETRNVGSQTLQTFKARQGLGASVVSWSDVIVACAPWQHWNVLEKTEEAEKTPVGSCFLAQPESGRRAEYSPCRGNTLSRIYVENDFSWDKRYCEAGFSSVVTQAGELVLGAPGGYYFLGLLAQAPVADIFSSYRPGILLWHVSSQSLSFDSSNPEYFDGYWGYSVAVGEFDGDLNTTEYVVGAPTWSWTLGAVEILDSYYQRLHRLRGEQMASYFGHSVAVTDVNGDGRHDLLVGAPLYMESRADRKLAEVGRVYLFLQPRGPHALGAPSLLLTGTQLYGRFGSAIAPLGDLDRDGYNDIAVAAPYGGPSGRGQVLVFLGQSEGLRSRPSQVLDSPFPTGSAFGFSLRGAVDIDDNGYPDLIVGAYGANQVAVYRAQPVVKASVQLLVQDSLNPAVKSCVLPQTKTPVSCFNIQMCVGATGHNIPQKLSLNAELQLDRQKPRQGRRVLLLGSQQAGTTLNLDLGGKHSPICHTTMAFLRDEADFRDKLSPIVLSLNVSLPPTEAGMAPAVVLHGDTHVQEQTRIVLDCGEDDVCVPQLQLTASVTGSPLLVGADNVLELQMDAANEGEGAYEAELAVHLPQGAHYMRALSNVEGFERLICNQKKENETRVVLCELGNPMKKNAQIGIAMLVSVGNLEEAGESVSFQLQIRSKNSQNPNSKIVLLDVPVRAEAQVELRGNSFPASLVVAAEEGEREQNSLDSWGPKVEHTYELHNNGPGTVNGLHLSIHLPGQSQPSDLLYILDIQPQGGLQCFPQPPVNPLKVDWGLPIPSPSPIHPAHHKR
Target sequence in this assay (P08514 891-1039 limits assumed): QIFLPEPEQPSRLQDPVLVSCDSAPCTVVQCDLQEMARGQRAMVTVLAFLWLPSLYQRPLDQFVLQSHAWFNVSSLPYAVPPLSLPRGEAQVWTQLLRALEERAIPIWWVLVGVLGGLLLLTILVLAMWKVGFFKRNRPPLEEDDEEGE
Assay [3] deals with T1, Integrin alpha-IIb/beta-3. The assay can be described thus: Competition with [1251]L-692,884 for binding to purified alpha IIb/beta3 integrin, activated by coating onto yttrium silicate scintillation proximity assay fluomicrospheres. The class given is protein-complex assay. For orientation: Scintillation proximity formats need no separation of bound from free tracer.
Target sequence in this assay (P05106 27-788 limits assumed): as the sequence (P05106 27-788 limits assumed) above
Target sequence in this assay (P08514 32-887 limits assumed): as the sequence (P08514 32-887 limits assumed) above
Target sequence in this assay (P08514 891-1039 limits assumed): as the sequence (P08514 891-1039 limits assumed) above
A short description of assay [4]: Inhibition of aggregation of human gel-filtered platelets measured by light transmittance method at 37 degrees C.

For `O=C(NC[C@H](NS(=O)(=O)c1ccccc1)C(=O)O)c1cc2cc(OCCC3CCNCC3)ccc2[nH]1`, the Selectivity in assay [1] was found to be 24. The Kd was 1.3 nM in assay [2] and 0.056 nM in assay [3].

As for `O=C(NC[C@H](NS(=O)(=O)c1ccccc1)C(=O)O)c1ccc2c(c1)C(=O)N(CCC1CCNCC1)C2`, the Selectivity in assay [1] was 12. The dissociation constant (Kd) stood at 3.1 nM in assay [2] and 0.25 nM in assay [3].

Take `C[C@H](CC(=O)O)NC(=O)CN1CCC[C@@H](CCC2CCNCC2)C1=O`: the Selectivity in assay [1] was found to be 140. The molecule also showed a dissociation constant Kd in assay [2] of 640 nM.

For `C#C[C@H](CC(=O)O)NC(=O)CN1CCC[C@@H](CCc2ccnc(N)c2)C1=O`, in assay [1], the Selectivity is 435. Besides, the Kd in assay [2] turned out to be 340 nM; in assay [3], 0.78 nM.

`O=C(O)CCNC(=O)c1cc2n(n1)CCCN(CCC1CCNCC1)C2=O` registered an IC50 in assay [4] of 470 nM. In addition, the Selectivity in assay [1] stood at 14. In assay [3], this molecule registered a Kd of 46 nM.

`Cc1ccc(S(=O)(=O)N[C@@H](CNC(=O)c2cc3n(n2)CCCN(CCC2CCNCC2)C3=O)C(=O)O)cc1`: the Selectivity in assay [1] stood at 18. The molecule also registered a Kd in assay [3] of 0.08 nM.

Turning to `O=C(CN1CCC[C@@H](CCC2CCNCC2)C1=O)NC[C@H](NS(=O)(=O)c1ccccc1)C(=O)O`, the Selectivity in assay [1] was 19. Moreover, the Kd in assay [2] stood at 15 nM; in assay [3], 0.78 nM.

In assay [4], `O=C(O)CCNC(=O)c1ccc2c(c1)C(=O)N(CCC1CCNCC1)C2` came in with an IC50 of 27 nM. The Selectivity in assay [1] was 9. Moreover, the Kd in assay [2] amounted to 120 nM; in assay [3] it was 13 nM.

For `C#C[C@H](CC(=O)O)NC(=O)CN1CCc2ccc(N3CCNCC3)cc2C1=O`, the Selectivity in assay [1] was 89. The Kd in assay [2] is 50 nM; in assay [3] it was 0.56 nM.

On to `O=C(O)C[C@H](NC(=O)C[C@H]1CCCN(CCC2CCNCC2)C1=O)c1cccnc1`, for which the Selectivity in assay [1] came to 37. Also, the Kd came to 11 nM in assay [2] and 0.3 nM in assay [3].

As for `C#CC(CC(=O)O)NC(=O)CN(C(=O)c1cccc(C2CCNCC2)c1)C1CC1` (stereo unspecified), the Selectivity in assay [1] is 141. Besides, the Kd was found to be 120 nM in assay [2] and 0.85 nM in assay [3].

For the molecule `C#C[C@H](CC(=O)O)NC(=O)C[C@H]1CCCN(CCc2ccnc(N)c2)C1=O`, the Selectivity in assay [1] came to 230. The Kd in assay [2] was found to be 60 nM; in assay [3] it was 0.26 nM.

With `O=C(O)C[C@@H](CO)NC(=O)CN1CCc2ccc(N3CCNCC3)cc2C1=O`, the Selectivity in assay [1] is over 67. The values for the Kd in assay [2] and in assay [3] were over 1000 nM and 15 nM, respectively.

For `C#C[C@H](CC(=O)O)NC(=O)CN1CCC[C@@H](CCC2CCNCC2)C1=O`, the Selectivity in assay [1] turned out to be 244. The Kd in assay [2] is 210 nM; in assay [3], 0.86 nM.

In the case of `O=C(NC[C@H](NS(=O)(=O)c1ccccc1)C(=O)O)c1cc2cc(CCC3CCNCC3)sc2s1`, in assay [4], half-maximal inhibition (IC50) was put at 8 nM. Besides, the Selectivity in assay [1] worked out at 23. Besides, the results for the Kd in assay [2] and in assay [3] were 2.1 nM and 0.09 nM, respectively.

`C[C@@H](/C=C/CN1CCC[C@@H](CCC2CCNCC2)C1=O)CC(=O)O`: the Selectivity in assay [1] turned out to be 192. For the same molecule, the Kd in assay [2] is 2300 nM; in assay [3], 12 nM.

On to `O=C(O)C[C@@H](CO)NC(=O)c1ccc2c(c1)C(=O)N(CCC1CCNCC1)C2`, for which the Selectivity in assay [1] came to 2. In addition, the Kd in assay [2] was 47 nM; in assay [3], 21 nM.

With `C#C[C@H](CC(=O)O)NC(=O)C[C@H]1CCCN(CCC2CCNCC2)C1=O`, the Selectivity in assay [1] was 18. The Kd in assay [2] amounted to 6.1 nM; in assay [3], 0.34 nM.

On to `O=C(O)C[C@H](NC(=O)CN1CCc2ccc(N3CCNCC3)cc2C1=O)c1cccnc1`, for which the Selectivity in assay [1] was found to be 14. Also, the results for the Kd in assay [2] and in assay [3] were 3.4 nM and 0.25 nM, respectively.

As to `O=C(O)C[C@H](NC(=O)CN1CCC[C@@H](CCC2CCNCC2)C1=O)c1cccnc1`, the Selectivity in assay [1] amounted to 221. The Kd in assay [2] turned out to be 84 nM; in assay [3] it was 0.38 nM.

In the case of `C#CC(CCCN1CCC[C@@H](CCC2CCNCC2)C1=O)CC(=O)O` (stereo partly specified), the Selectivity in assay [1] came to 344. Besides, the figures for the Kd in assay [2] and in assay [3] were 3100 nM and 9 nM, respectively.

In the case of `C#C[C@H](CC(=O)O)NC(=O)c1ccc2c(c1)C(=O)N(CCc1ccnc(N)c1)C2`, the Selectivity in assay [1] came to 38. In addition, the Kd in assay [2] came out at 84 nM; in assay [3], 2.2 nM.

For the molecule `O=C(CN1CCc2ccc(N3CCNCC3)cc2C1=O)NC[C@H](NS(=O)(=O)c1ccccc1)C(=O)O`, the Selectivity in assay [1] stood at 1.9. In addition, the Kd worked out at 13 nM in assay [2] and 6.7 nM in assay [3].

On to `O=C(NC[C@H](NS(=O)(=O)c1ccccc1)C(=O)O)c1ccc(OCCC2CCNCC2)cc1`, for which, in assay [1], the Selectivity was 15. The Kd came out at 2.4 nM in assay [2] and 0.16 nM in assay [3].

Consider `O=C(O)CCNC(=O)CN1CCc2ccc(N3CCNCC3)cc2C1=O`, for which, in assay [3], binding was put at a Kd of 9.7 nM.

Consider `CC(CC(=O)O)NC(=O)c1ccc2c(c1)C(=O)N(CCC1CCNCC1)C2` (stereo unspecified), for which, in assay [1], the Selectivity amounted to 0.8. The Kd was 49 nM in assay [2] and 64 nM in assay [3].

By Kd is commonly meant the equilibrium constant for the complex coming apart. As usually defined, the IC50 is the concentration at which inhibition is half-maximal. Lower therefore signals greater potency.
